{"source": "PubChem BioAssay AID1259409", "about": "(Chemical Carcinogenesis Research Information System (CCRIS), 2018)", "origin": "cited, not measured here", "tested_on": "rodent chemically induced tumor inhibition, incidence and multiplicity", "assay": "CCRIS tumor inhibitor studies", "details": "Promoter: NONE USED"}
{"molecule": "c1ccc2c(c1)Nc1ccccc1[Se]2", "values": [{"measurement": "tumour outcome (control, treated, inhibition, significance)", "setting": "Carcinogen: BENZO[A]PYRENE, 50-32-8, Dose [Inhibitor]: 0, 3.8 UMOL/G DIET BEGINNING 1 WK PRIOR TO CARCINOGEN TREATMENT AND CONTINUING FOR 1 WK POST CARCINOGEN TREATMENT FOLLOW, Route [Inhibitor]: ORAL, Species: MOUSE, Strain/Sex: CD-1/FEMALE, Target Tissue: Type of Lesion: FORESTOMACH: PAPILLOMA, Dose [Carcinogen]: 1 MG IN 0.2 ML CORN OIL 2/WK FOR 4 WK", "result": "85%, 95%, -12%, not significant"}]}
{"molecule": "CO[C@@]12[C@H](COC(N)=O)C3=C(C(=O)C(C)=C(N)C3=O)N1C[C@@H]1N[C@@H]12", "values": [{"measurement": "tumour outcome (control, treated, inhibition, significance)", "setting": "Carcinogen: N-BUTYL-N-(4-HYDROXYBUTYL)NITROSAMINE, 3817-11-6, Dose [Inhibitor]: 0.5 ML (2000 UG/ML) INSTILLED TRANSURETHRALLY 2/WK FOR 2 WK POST CARCINOGEN DOSE (STUDY DURATION: 20 WK), Route [Inhibitor]: INTRAVESICAL, Species: RAT, Strain/Sex: WISTAR/MALE, Target Tissue: Type of Lesion: BLADDER: CARCINOMA, Dose [Carcinogen]: 0.05% IN DRINKING WATER FOR 12 WK", "result": "14/20 (70%), 8/10 (80%), -14%, not calculated"}, {"measurement": "tumour outcome (control, treated, inhibition, significance)", "setting": "Carcinogen: N-BUTYL-N-(4-HYDROXYBUTYL)NITROSAMINE, 3817-11-6, Dose [Inhibitor]: 0.5 ML (2000 UG/ML) INSTILLED TRANSURETHRALLY 2/WK FOR 2 WK POST CARCINOGEN DOSE (STUDY DURATION: 20 WK), Route [Inhibitor]: INTRAVESICAL, Species: RAT, Strain/Sex: WISTAR/MALE, Target Tissue: Type of Lesion: BLADDER: PAPILLOMA, Dose [Carcinogen]: 0.05% IN DRINKING WATER FOR 12 WK", "result": "6/20 (30%), 2/10 (20%), 33%, not calculated"}, {"measurement": "tumour outcome (control, treated, inhibition, significance)", "setting": "Carcinogen: N-BUTYL-N-(4-HYDROXYBUTYL)NITROSAMINE, 3817-11-6, Dose [Inhibitor]: 2000 UG/ML INSTILLED CONTINUOUSLY FOR 2 WK POST CARCINOGEN DOSE (STUDY DURATION: 12 WK), Route [Inhibitor]: INTRAVESICAL, Species: RAT, Strain/Sex: WISTAR/MALE, Target Tissue: Type of Lesion: BLADDER: CARCINOMA, Dose [Carcinogen]: 0.05% IN DRINKING WATER FOR 12 WK", "result": "14/20 (70%), 2/10 (20%), 71%, not calculated"}, {"measurement": "tumour outcome (control, treated, inhibition, significance)", "setting": "Carcinogen: N-BUTYL-N-(4-HYDROXYBUTYL)NITROSAMINE, 3817-11-6, Dose [Inhibitor]: 2000 UG/ML INSTILLED CONTINUOUSLY FOR 2 WK POST CARCINOGEN DOSE (STUDY DURATION: 12 WK), Route [Inhibitor]: INTRAVESICAL, Species: RAT, Strain/Sex: WISTAR/MALE, Target Tissue: Type of Lesion: BLADDER: PAPILLOMA, Dose [Carcinogen]: 0.05% IN DRINKING WATER FOR 12 WK", "result": "6/20 (30%), 2/10 (20%), 33%, not calculated"}]}
{"molecule": "Ac-SDAAVDTSSEITTKDLKEKKEVVEEAEN-OH", "values": [{"measurement": "tumour outcome (control, treated, inhibition, significance)", "setting": "Carcinogen: N-BUTYL-N-(4-HYDROXYBUTYL)NITROSAMINE, 3817-11-6, Dose [Inhibitor]: 0, 0.3 UG IN 100 µL SALINE INJECTED INTO RIGHT THIGH 2/WK FOR 20 WK (STUDY DURATION: 20 WK), Route [Inhibitor]: INTRAMUSCULAR, Species: MOUSE, Strain/Sex: C3H/HEJ/FEMALE, Target Tissue: Type of Lesion: BLADDER: CARCINOMA, Dose [Carcinogen]: 0.05% (W/V) SOLUTION IN DRINKING WATER WITH 0.001% (W/V) TWEEN 80 FOR 20 WK", "result": "6/11 (55%), 5/12 (42%), 24%, not significant"}, {"measurement": "tumour outcome (control, treated, inhibition, significance)", "setting": "Carcinogen: N-BUTYL-N-(4-HYDROXYBUTYL)NITROSAMINE, 3817-11-6, Dose [Inhibitor]: 0, 0.3 UG IN 100 µL SALINE INJECTED INTO RIGHT THIGH 2/WK FOR 25 WK (STUDY DURATION: 25 WK), Route [Inhibitor]: INTRAMUSCULAR, Species: MOUSE, Strain/Sex: C3H/HEJ/FEMALE, Target Tissue: Type of Lesion: BLADDER: CARCINOMA, Dose [Carcinogen]: 0.05% (W/V) SOLUTION IN DRINKING WATER WITH 0.001% (W/V) TWEEN 80 FOR 25 WK", "result": "9/16 (56%), 9/16 (56%), 0%, not significant"}, {"measurement": "tumour outcome (control, treated, inhibition, significance)", "setting": "Carcinogen: N-BUTYL-N-(4-HYDROXYBUTYL)NITROSAMINE, 3817-11-6, Dose [Inhibitor]: 0, 6 UG IN 100 µL SALINE INJECTED INTO RIGHT THIGH 2/WK FOR 30 WK (STUDY DURATION: 30 WK), Route [Inhibitor]: INTRAMUSCULAR, Species: RAT, Strain/Sex: WISTAR/FEMALE, Target Tissue: Type of Lesion: BLADDER: CARCINOMA, Dose [Carcinogen]: 0.025% (W/V) SOLUTION IN DRINKING WATER WITH 0.0005% (W/V) TWEEN 80 FOR 30 WK", "result": "9/11 (82%), 6/11 (55%), 33%, not significant"}]}
